{"source": "patent US20020019373A1", "about": "“Combinations of bisphosphonates and estrogenic agents” (American Home Products Corporation, priority 2000, published 2002)", "origin": "cited, not measured here", "tested_on": "Paget's disease of the bone", "details": "approved by the FDA for Paget's disease of the bone (30-mg tablets)", "data": [{"smiles": "O=P(O)(O)C(O)(Cc1cccnc1)P(=O)(O)O", "note": "[Risedronate]", "values": [{"measurement": "effectiveness in clinical trials", "result": "effective"}]}]}
